Data set [1] has as its system adhesion of Ramos cells to VCAM-1. Briefly: Adhesion of Ramos cells to immobilized VCAM-1 (domains 1-3) (Ramos—VCAM-1 assay). The class given is cell-based. To be noted: Homo sapiens, Ramos, 1 h. An excerpt:
(§1) In Vitro Assay: Adhesion of Jurkat/Ramos Cells to Immobilized VCAM-1 (Domains 1-3)
(§2) Preparation of VCAM-1 (Extracellular Domains 1-3)
(§3) Complementary DNA (cDNA) encoding 7 domain form of VCAM-1 (GenBank accession #M60335) was obtained using Rapid-Screen™ cDNA library panels (OriGene Technologies, Inc) at Takara Gene Analysis Center (Shiga, Japan). The primers used were 5′-CCAAGGCAGAGTACGCAAAC-3′ (sense) and 5′-TGGCAGGTATTATTAAGGAG-3′ (antisense). PCR amplification of the 3 domain VCAM-1 cDNA was perform using Pfu DNA polymerase (Stratagene) with the following sets of primers: (U-VCAMd1-3) 5′-CCATATGGTACCTGATCAATTTAAAATCGAGACCACCCCAGAA-3′; (L-VCAMd1-3) 5′-CCATATAGCAATCCTAGGTCCAGGGGAGATCTCAACAGTAAA-3′. PCR cycle was 94° C. for 45 sec. 55° C. for 45 sec, 72° C. for 2 min, repeating 15 cycles. After the purification of the PCR product, the fragment was digested with KpnI-AvrII. The digested fragment was ligated into pBluescript IISK(−) (Strategene), which was linearized by digesting with KpnI-XhoI. The ligation was followed by transformation to a Dam/Dcm methylase-free E. coli strain SCS110 (Strategene) to create the donor plasmid pHH7. To direct VCAM-1 molecule into the insect cell secretory pathway, the VCAM-1 coding sequence was fused to signal peptide sequence of honeybee melittin. The resulting melittin-VCAM fusion was placed in correct orientation to the baculovirus polyhedrin promoter. Baculovirus transfer vector containing first 3-domain form VCAM-1 (pH 10) was constructed by ligation of 0.9 kb fragment from AvrII/Klenow/BclI digests of pH 7 into SalI/Klenow/BamHI digests of pMelBacB Invitrogen). Recombinant baculovirus was generated by using Bac-N-Blue™ Transfection kit (Invitrogen) according to the manufacture's instruction. The recombinant virus was amplified by infection to High-Five™ insect cells for 5-6 days, and virus titer was determined by plaque assay.
(§4) High-Five™ insect cells were pelleted in a 225 ml conical tube by centrifugation at 1000 rpm for 5 min. After discarding the supernatant, the pellet was resuspended in 1.5×10^9 pfu (MOI=5) of high-titer virus solution, followed by incubation for 1.5 hours at room temperature. The cells were pelleted again and washed once in fresh Express Five™ serum free medium. The cells were pelleted again and finally, resuspended in 200 ml of fresh Express Five TM medium, transferred to a 1,000 ml shaker flask, and incubated in a shaker at 27° C., 130 rpm, for 48 hours before the culture supernatant was collected. The purification of 3-domain form of VCAM-1 from the culture supernatant was performed by one-step anion exchange chromatography. Protein concentration was determined by using Coomassie protein assay reagent (Pierce) according to the manufacture's instruction.
(§5) Preparation of VCAM-1 Coated Microtiter Plates
(§6) Recombinant human VCAM-1 (extracellular domains 1-3) was dissolved at 1.0 μg/1 ml in PBS. Each well of the microtiter plates (Nalge Nunc International, Fluoro-nunc Cert, 437958) was coated with 100 μl of substrate or for background control with buffer alone for 15 hours at 4 C. After discarding the substrate solution, the wells were blocked using 150 μl per well of block solution Kirkegaard Perry Laboratories, 50-61-01) for 90 minutes. The plate was washed with wash buffer containing 24 mM Tris-HCl (pH 7.4), 137 mM NaCl, […] and 2 MM MnCl2 just before addition of the assay.
In Vitro Assay using Ramos Cells
Preparation of Fluorescence Labeled Ramos Cells:
Ramos cells (American Type Culture Collection, Clone CRL-1596) were cultured in RPMI 1640 medium (Nikken Bio Medical Laboratory, CM1101) supplemented with 10% fetal bovine serum (Hyclone, A-1119-L), 100 U/ml penicilin (Gibco BRL, 15140-122) and 100 μg/ml streptomycin (Gibco BRL, 15140-122) in a humidified incubator at 37° C. with 5% CO2. […]

The test system of data set [2] is adhesion of Jurkat cells to VCAM-1. Briefly: Adhesion of Jurkat cells to immobilized VCAM-1 (domains 1-3) (Jurkat—VCAM-1 assay). Format: cell-based, human.
From the text: as §1, §2, §3, §4, §5, §6
In Vitro Assay using Jurkat Cells
Preparation of Fluorescence Labeled Jurkat Cells:
Jurkat cells (American Type Culture Collection, Clone E6-1, ATCC TIB-152) were cultured in RPM 1640 medium (Nikken Bio Medical Laboratory, CM1101) supplemented with 10% fetal bovine serum (Hyclone, A-1119-L), 100 U/ml penicilin (Gibco BRL, 15140-122) and 100 μg/ml streptomycin (Gibco BRL, 15140-122) in a humidified incubator at 37° C. with 5% CO2. […]

By melting point is commonly meant the temperature of the solid-liquid transition. The IC50 is the concentration that inhibits the measured activity by half. Higher therefore signals a need for much substance.

As for `COC(=O)c1ccccc1NC(=O)[C@H](CC(C)C)NC(=O)Cc1ccc(NC(=O)Nc2ccccc2C)cc1` [Example 15], the melting point came out at 170 °C.

For `COC(=O)c1cccc(NC(=O)[C@H](CC(C)C)NC(=O)Cc2ccc(NC(=O)Nc3ccccc3C)cc2)c1` [Example 16], the melting point stood at 220 °C. On the same count and under the same terms, for `COC(=O)c1ccc(NC(=O)[C@H](CC(C)C)NC(=O)Cc2ccc(NC(=O)Nc3ccccc3C)cc2)cc1` [Example 17, Methyl 4-([({4-[(2-toluidinocarbonyl)amino]phenyl}acetyl)L-leucin]amino)benzoate] the value was 250 to 252 °C; for `COC(=O)Cc1ccccc1NC(=O)[C@H](CC(C)C)NC(=O)Cc1ccc(NC(=O)Nc2ccccc2C)cc1` [Example 18], 218 °C. In turn, `COC(=O)Cc1cccc(NC(=O)[C@H](CC(C)C)NC(=O)Cc2ccc(NC(=O)Nc3ccccc3C)cc2)c1` [Example 19] registered a melting point of 200 °C. On the same count and under the same terms, for `COC(=O)Cc1ccc(NC(=O)[C@H](CC(C)C)NC(=O)Cc2ccc(NC(=O)Nc3ccccc3C)cc2)cc1` [Example 20] the value was 222 °C; for `CCOC(=O)c1ccc(NC(=O)[C@H](CC(C)C)NC(=O)Cc2ccc(NC(=O)Nc3ccccc3C)cc2)c(Cl)c1` [Example 21], 163 to 165 °C; for `CCOC(=O)c1ccc(NC(=O)[C@H](CC(C)C)NC(=O)Cc2ccc(NC(=O)Nc3ccccc3C)cc2)c(OC)c1` [Example 22], 139 to 141 °C. Turning to `COC(=O)c1ccc(NC(=O)[C@H](CC(C)C)NC(=O)Cc2ccc(NC(=O)Nc3ccccc3C)cc2)cc1Nc1ccccc1` [Example 24], the melting point lay within 205 to 206 °C. Same read-out and setting: for `COC(=O)c1ccc(NC(=O)[C@H](CC(C)C)NC(=O)Cc2ccc(NC(=O)Nc3ccccc3C)cc2)cc1Oc1ccccc1` [Example 25] the value was 191 to 195 °C; for `COC(=O)c1cc(Cl)c(NC(=O)[C@H](CC(C)C)NC(=O)Cc2ccc(NC(=O)Nc3ccccc3C)cc2)cc1Cl` [Example 26], 204 to 205 °C. The compound `Cc1ccccc1NC(=O)Nc1ccc(CC(=O)N[C@@H](CC(C)C)C(=O)Nc2ccc(-c3nnn[nH]3)cc2)cc1` [Example 27] yielded a melting point of 255 to 257 °C. This compound displayed a half-inhibitory concentration (IC50) in data set [1] of 2000 to 10000 nM. On to `CCOC(=O)C(c1ccc(NC(=O)[C@H](CC(C)C)NC(=O)Cc2ccc(NC(=O)Nc3ccccc3C)cc2)cc1)C1CCCC1` (some centres unmarked) [Example 30], for which the melting point fell in the range of 186 to 189 °C. The compound `CCOC(=O)Cc1csc(N(C)C(=O)[C@H](CC(C)C)NC(=O)Cc2ccc(NC(=O)Nc3ccccc3C)cc2)n1` [Example 33] had a melting point of 125 to 130 °C. For the compound `Cc1ccccc1NC(=O)Nc1ccc(CC(=O)N[C@@H](CCCCNC(=O)OCc2ccccc2)C(=O)Nc2ccc(C(=O)OCc3ccccc3)cc2)cc1` [Example 35], the melting point was in the range of 188 to 189 °C. `COCCCN(CC(=O)Nc1ccc(C(=O)OC)cc1)C(=O)Cc1ccc(NC(=O)Nc2ccccc2C)cc1` [Example 36] displayed a melting point of 197 to 198 °C. `Cc1ccccc1NC(=O)Nc1ccc(CC(=O)N[C@@H](CC(C)C)C(=O)Nc2ccccc2C(=O)O)cc1` [Example 39] displayed a melting point of 190 °C. In data set [2] (Homo sapiens, Jurkat, 1 h), the IC50 is more than 10 µM. As for `Cc1ccccc1NC(=O)Nc1ccc(CC(=O)N[C@@H](CC(C)C)C(=O)Nc2cccc(C(=O)O)c2)cc1` [Example 40], the melting point worked out at 220 °C. The compound further returned an IC50 in data set [2] (Homo sapiens, Jurkat, 1 h) of more than 10 µM. The corresponding values for `Cc1ccccc1NC(=O)Nc1ccc(CC(=O)N[C@@H](CC(C)C)C(=O)Nc2ccc(C(=O)O)cc2)cc1` [Example 41] are 219 to 223 °C and less than 0.5 µM. The compound `Cc1ccccc1NC(=O)Nc1ccc(CC(=O)N[C@@H](CC(C)C)C(=O)Nc2ccccc2CC(=O)O)cc1` [Example 42] returned a melting point of 186 to 190 °C. For the same compound, the IC50 in data set [2] (Homo sapiens, Jurkat, 1 h) was more than 10 µM. For `Cc1ccccc1NC(=O)Nc1ccc(CC(=O)N[C@@H](CC(C)C)C(=O)Nc2cccc(CC(=O)O)c2)cc1` [Example 43], in that order: 178 to 181 °C and 0.5 to 2 µM. `Cc1ccccc1NC(=O)Nc1ccc(CC(=O)N[C@@H](CC(C)C)C(=O)Nc2ccc(CC(=O)O)cc2)cc1` [Example 44] showed a melting point of 206 °C. This compound also displayed an IC50 in data set [2] (Homo sapiens, Jurkat, 1 h) of 2 to 10 µM. Turning to `Cc1ccccc1NC(=O)Nc1ccc(CC(=O)N[C@@H](CC(C)C)C(=O)Nc2ccc(C(=O)O)cc2Cl)cc1` [Example 45], the melting point was in the range of 154 to 158 °C. In addition, the IC50 entry in data set [2] (Cell Type Jurkat, adhesion to VCAM-1 coated plates, 1 hour at 37 C, IC50 value ranges) was “A-B”. As for `COc1cc(C(=O)O)ccc1NC(=O)[C@H](CC(C)C)NC(=O)Cc1ccc(NC(=O)Nc2ccccc2C)cc1` [Example 46], the melting point was 138 to 142 °C. The compound further returned an IC50 in data set [1] of more than 10000 nM.

For `Cc1ccccc1NC(=O)Nc1ccc(CC(=O)N[C@@H](CC(C)C)C(=O)Nc2ccc(C(=O)O)c(Cl)c2)cc1` [Example 47], the melting point fell in the range of 178 to 180 °C. For the same compound, the 50% inhibitory concentration (IC50) in data set [1] is less than 500 nM. `Cc1ccccc1NC(=O)Nc1ccc(CC(=O)N[C@@H](CC(C)C)C(=O)Nc2ccc(C(=O)O)c(Nc3ccccc3)c2)cc1` [Example 48] yielded a melting point of 164 to 169 °C. The same compound displayed an IC50 in data set [1] of less than 500 nM.

On to `Cc1ccccc1NC(=O)Nc1ccc(CC(=O)N[C@@H](CC(C)C)C(=O)Nc2ccc(C(=O)O)c(Oc3ccccc3)c2)cc1` [Example 49], for which the melting point was in the range of 158 to 160 °C. This compound gave an IC50 in data set [1] of less than 500 nM.

For the compound `Cc1ccccc1NC(=O)Nc1ccc(CC(=O)N[C@@H](CC(C)C)C(=O)N2CCCc3cc(C(=O)O)ccc32)cc1` [Example 52], the IC50 in data set [1] lay within 2000 to 10000 nM. Regarding `Cc1ccccc1NC(=O)Nc1ccc(CC(=O)N[C@@H](CC(C)C)C(=O)Nc2ccc(C(C(=O)O)C3CCCC3)cc2)cc1` (some centres unmarked) [Example 53], the melting point was in the range of 206 to 208 °C. In data set [2] (Homo sapiens, Jurkat, 1 h), the IC50 fell in the range of 2 to 10 µM. With `Cc1ccccc1NC(=O)Nc1ccc(CC(=O)N[C@@H](CC(C)C)C(=O)Nc2nc(CC(=O)O)cs2)cc1` [Example 54], the melting point was in the range of 178 to 180 °C. This compound had an IC50 in data set [2] (Homo sapiens, Jurkat, 1 h) of 2 to 10 µM. For `Cc1ccccc1NC(=O)Nc1ccc(CC(=O)N[C@@H](CC(C)C)C(=O)Nc2nnc(CC(=O)O)s2)cc1` [Example 55], in that order: 187 to 189 °C and 2 to 10 µM.

For the compound `Cc1ccccc1NC(=O)Nc1ccc(CC(=O)N[C@@H](CC(C)C)C(=O)Nc2ccc3[nH]c(C(=O)O)cc3c2)cc1` [Example 57], the IC50 in data set [2] (Homo sapiens, Jurkat, 1 h) was more than 10 µM. On to `Cc1ccccc1NC(=O)Nc1ccc(CC(=O)N[C@@H](CC(C)C)C(=O)NC2CCC(C(=O)O)CC2)cc1` (some centres unmarked) [Example 60], for which the melting point was 175 °C (dec.). In data set [2] (Homo sapiens, Jurkat, 1 h), this compound registered an IC50 of 2 to 10 µM. In data set [1], `Cc1ccccc1NC(=O)Nc1ccc(CC(=O)N[C@@H](CC(C)C)C(=O)NC2CCCCC2C(=O)O)cc1` (some centres unmarked) [Example 61] came in with an IC50 of 2000 to 10000 nM.

These data come from patent US20030232868A1, “Cyclic carboxylic acids as integrin antagonists” (priority 2000, published 2003).
